Measurements as given in US12264185B2, “Stabilized BCL9 peptides for treatment of aberrant Wnt signaling” (WntRx Pharmaceuticals Inc., priority 2015, dated 2025).

Key:
CT26 cells = assay: cells
Experimental: CT26 cells were grown in F-bottom plates over 5 days. […] CellTiterGlo (Promega) cell viability assay. […] Doxorubicin is a known inhibitor of cell growth and was included as a control.

Colo320DM tumor cells = assay: Colo320DM colon cancer xenograft model in BALB/c nude mice; format: in vivo; settings: for tumor volume (mean±standard error of mean) / tumor volume smaller than vehicle-treated group: Day 14
Experimental: Based on the favorable PK profile of WX-024 in mice, as described above, the efficacy of WX-024 was investigated in a mouse xenograft colon cancer model. The Colo320DM colon cancer model in BALB/c nude mice was employed, in which Colo320DM cells are injected subcutaneously into BALB/c nude mice.
Colo320DM tumor cells (ATCC) were cultured in RPMI1640 medium (GIBCO, Cat #31800022) supplemented with 10% heat-inactivated fetal bovine serum at 37° C. Harvesting of Colo320DM cells was done when cells were growing in an exponential growth phase. Female BALB/c nude mice (Shanghai Laboratory Animal Center) were used for the study at 6-8 weeks of age. Animals had free access to water and irradiation sterilized food throughout the study period. Each mouse (n=16) was inoculated subcutaneously in the right flank region with 5×10^6 Colo320DM tumor cells in 0.1 mL of PBS. Tumors were allowed to develop for 14 days after inoculation, at which time the mean tumor size was 156.78 mm^3. During the study, the care and use of animals was conducted in accordance with the Association for Assessment and Accreditation of Laboratory Animal Care (AAALAC). Following inoculation of tumor cells, animals were checked daily for morbidity and mortality. The body weight of each animal was monitored throughout the study.
4% ethanol+8% Tween 80+88% 10 mM PBS was used as a vehicle. All treatments were administered once daily. The WX-024 solution was dissolved in pure DMSO and then diluted with sterile water. The dosing volume was adjusted for body weight such that the dosing volume for each animal was 0.05 mL/10 g of body weight for i.v. dosing. The treatment period was 14 days.
All treatments were begun as daily i.v. dosing. […] The injection method was changed to i.p. injection at Day 7 for the 10 mg/kg and 15 mg/kg groups. Dosing via i.p. injection (with the dosing volume adjusted to 0.1 ml/10 g) was maintained for the 10 and 15 mg/kg groups from Day 7 of the treatment period onwards, and the body weight of these animals stabilized.
Tumor volumes were measured in two dimensions using a caliper at Days 0, 3, 5, 7, 9, 11, 14 of the treatment period (all dosing starting after 14 days of tumor development). The volume of the tumor was measured using the equation: V=0.5 a×b^2, wherein a and b are the long and short diameters of the tumor, respectively. Tumor volumes are expressed in mm^3. At the end of the study (i.e., following 22 days of treatment) the tumor mass weight was measured.
At the conclusion of the Colo320DM model, tumor and intestinal samples were collected, fixed in formalin, and imbedded in paraffin using standard techniques. Four μm-thick section of tissue were prepared for immunohistochemistry (IHC) staining. The tissue sections were deparaffinized and rehydrated via sequential washing with xylene, graded ethanol and phosphate-buffered saline (PBS). Following deparaffinization and rehydration, the tissue sections were subjected to high temperature-induced epitope retrieval in target retrieval solution (10 mM citrate buffer; pH 6.0).
Antibody binding was detected using an UltraVision Quanto Detection System (Thermo, Cat #TL-060-QHD) kit following the manufacturer's instructions. The sections were treated with Hydrogen Peroxide Block and Ultra V Block (provided in the kit) and then incubated with primary antibody overnight at 4° C.: CD44 (Abcam, Cat #ab157107 diluted 1:500), Axin (LSBio, Rabbit IgG, Cat #LS-B7029, Lot #51907, Stock Conc.: 1000 ug/ml), or VEGFA (VEGFA: LS Bio, Rabbit IgG, Cat #LS-B10263, Lot #65323, Stock Conc.: 1000 ug/ml). Rabbit IgG replaced the primary antibody in the negative control. All sections were counterstained with hematoxylin, dehydrated and mounted. IHC images were taken with an Olympus CKX31SF reverse microscope.

CC[C@H](C)[C@@H]1NC(=O)[C@@](C)(NC(=O)[C@H](CCCNC(=N)N)NC(=O)[C@H](CC(C)C)NC(=O)[C@@H](NC(=O)[C@H](CCC(N)=O)NC(=O)[C@H](CC(C)C)NC(C)=O)[C@@H](C)O)CCCC=CCCC[C@@](C)(C(=O)N[C@@H](CC(C)C)C(=O)N[C@@H](Cc2ccc3ccccc3c2)C(N)=O)NC(=O)[C@H](CCCNC(=N)N)NC(=O)[C@H](CCC(N)=O)NC1=O [WX-024, LQTLRXaa1IQRXaa2L]
IC50 (CT26 cells): 1750 nM
effect on body weight (Colo320DM tumor cells; 5 mg/kg i.v. throughout the study): without an apparent effect on body weight
tumor volume (mean±standard error of mean) (Colo320DM tumor cells; 5 mg/kg): 2039±373.29 mm^3
tumor volume (mean±standard error of mean) (Colo320DM tumor cells; 10 mg/kg (i.v. then i.p. from Day 7)): 1370±114.39 mm^3
intestinal morphology (Colo320DM tumor cells; 10 mg/kg or 15 mg/kg, 22 days): maintained
tumor volume smaller than vehicle-treated group (Colo320DM tumor cells; 10 mg/kg): 44.9%
tumor volume (mean±standard error of mean) (Colo320DM tumor cells; 15 mg/kg (i.v. then i.p. from Day 7)): 1157.6±99.04 mm^3
average body weight loss compared to vehicle (Colo320DM tumor cells; 15 mg/kg i.v. daily, after 3 days of treatment): approximately 11%
Axin 2 staining of intestine (Colo320DM tumor cells; 15 mg/kg, 22 days): decreased Axin 2 staining
CD44 staining of tumor (Colo320DM tumor cells; 15 mg/kg, 22 days): decrease in CD44 staining
tumor volume smaller than vehicle-treated group (Colo320DM tumor cells; 15 mg/kg): 53.2%
tumor mass weight (Colo320DM tumor cells; 10 or 15 mg/kg, 22 days of treatment): substantially less than tumor mass of vehicle-treated mice
IC50, preliminary dose-response correlation with predicted tumor size (Colo320DM tumor cells; Colo320DM xenograft): 12.69 mg/kg
VEGFA expression in tumors (Colo320DM tumor cells; immunohistochemistry): capable of suppressing VEGFA expression in tumors
